{"source": "ChEMBL document CHEMBL1201862", "about": "“PubChem BioAssay data set” (2004)", "key": {"[1]": {"target": "T1, Sentrin-specific protease 8 (Homo sapiens, UniProt Q96LD8)", "T1 sequence (Q96LD8 whole entry)": "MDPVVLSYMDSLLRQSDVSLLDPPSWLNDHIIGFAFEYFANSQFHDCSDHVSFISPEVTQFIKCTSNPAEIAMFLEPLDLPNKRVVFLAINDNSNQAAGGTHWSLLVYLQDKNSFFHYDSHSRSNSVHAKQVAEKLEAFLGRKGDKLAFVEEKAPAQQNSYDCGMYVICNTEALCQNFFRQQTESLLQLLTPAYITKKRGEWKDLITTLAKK", "assay_type": "functional"}, "[2]": {"target": "T1, Sentrin-specific protease 8", "assay_type": "functional", "remark": "listed apart in the source"}, "Aurora kinase B": {"target": "Aurora kinase B (Homo sapiens, UniProt Q96GD4)", "sequence (Q96GD4 whole entry)": "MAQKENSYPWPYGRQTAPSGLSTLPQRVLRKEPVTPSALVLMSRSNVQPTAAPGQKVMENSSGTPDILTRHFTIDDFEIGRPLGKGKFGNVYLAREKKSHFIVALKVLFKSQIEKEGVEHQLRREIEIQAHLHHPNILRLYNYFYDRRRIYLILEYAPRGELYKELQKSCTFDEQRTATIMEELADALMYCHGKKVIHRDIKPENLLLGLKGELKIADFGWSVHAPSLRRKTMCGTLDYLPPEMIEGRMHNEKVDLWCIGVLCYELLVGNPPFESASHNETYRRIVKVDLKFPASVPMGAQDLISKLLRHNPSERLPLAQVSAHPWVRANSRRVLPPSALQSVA", "assay_type": "functional"}, "[3]": {"target": "Vascular endothelial growth factor receptor 2 (Homo sapiens, UniProt P35968)", "sequence (P35968 whole entry)": "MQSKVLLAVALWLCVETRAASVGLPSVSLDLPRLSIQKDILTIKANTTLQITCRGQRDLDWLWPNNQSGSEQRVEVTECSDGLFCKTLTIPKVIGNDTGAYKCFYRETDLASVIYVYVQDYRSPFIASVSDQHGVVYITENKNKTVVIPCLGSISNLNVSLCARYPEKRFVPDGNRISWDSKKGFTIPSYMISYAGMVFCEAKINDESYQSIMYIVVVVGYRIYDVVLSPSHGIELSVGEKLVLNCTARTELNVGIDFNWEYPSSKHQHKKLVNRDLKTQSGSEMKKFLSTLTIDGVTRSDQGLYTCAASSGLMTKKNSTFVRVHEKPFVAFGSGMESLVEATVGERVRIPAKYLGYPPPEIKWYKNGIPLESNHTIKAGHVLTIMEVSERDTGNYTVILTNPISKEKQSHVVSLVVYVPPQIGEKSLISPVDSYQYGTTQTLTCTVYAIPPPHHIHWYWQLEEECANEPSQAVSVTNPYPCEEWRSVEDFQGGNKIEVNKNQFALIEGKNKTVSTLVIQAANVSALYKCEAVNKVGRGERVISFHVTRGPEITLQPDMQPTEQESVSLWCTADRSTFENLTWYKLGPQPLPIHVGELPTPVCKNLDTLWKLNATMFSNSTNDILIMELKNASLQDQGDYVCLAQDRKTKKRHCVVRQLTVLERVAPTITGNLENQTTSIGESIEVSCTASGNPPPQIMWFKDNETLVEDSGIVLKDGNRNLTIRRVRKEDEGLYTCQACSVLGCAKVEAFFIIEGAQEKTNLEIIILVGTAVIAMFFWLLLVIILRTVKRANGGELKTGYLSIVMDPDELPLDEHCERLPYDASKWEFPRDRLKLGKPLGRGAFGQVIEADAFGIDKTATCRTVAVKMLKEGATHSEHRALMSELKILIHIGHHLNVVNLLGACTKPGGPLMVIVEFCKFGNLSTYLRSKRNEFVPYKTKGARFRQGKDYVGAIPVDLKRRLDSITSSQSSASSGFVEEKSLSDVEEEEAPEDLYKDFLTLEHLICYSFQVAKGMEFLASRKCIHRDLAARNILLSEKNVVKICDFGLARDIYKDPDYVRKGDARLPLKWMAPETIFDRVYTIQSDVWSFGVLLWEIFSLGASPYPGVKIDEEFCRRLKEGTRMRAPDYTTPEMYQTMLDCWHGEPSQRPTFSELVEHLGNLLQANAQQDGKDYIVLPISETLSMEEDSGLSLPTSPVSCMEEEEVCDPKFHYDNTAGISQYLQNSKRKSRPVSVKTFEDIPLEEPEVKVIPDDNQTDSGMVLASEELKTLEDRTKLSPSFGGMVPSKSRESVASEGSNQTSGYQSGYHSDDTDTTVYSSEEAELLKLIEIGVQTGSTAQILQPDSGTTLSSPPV", "assay_type": "functional"}, "Aurora kinase A": {"target": "T2, Aurora kinase A (Homo sapiens, UniProt O14965)", "T2 sequence (O14965 whole entry)": "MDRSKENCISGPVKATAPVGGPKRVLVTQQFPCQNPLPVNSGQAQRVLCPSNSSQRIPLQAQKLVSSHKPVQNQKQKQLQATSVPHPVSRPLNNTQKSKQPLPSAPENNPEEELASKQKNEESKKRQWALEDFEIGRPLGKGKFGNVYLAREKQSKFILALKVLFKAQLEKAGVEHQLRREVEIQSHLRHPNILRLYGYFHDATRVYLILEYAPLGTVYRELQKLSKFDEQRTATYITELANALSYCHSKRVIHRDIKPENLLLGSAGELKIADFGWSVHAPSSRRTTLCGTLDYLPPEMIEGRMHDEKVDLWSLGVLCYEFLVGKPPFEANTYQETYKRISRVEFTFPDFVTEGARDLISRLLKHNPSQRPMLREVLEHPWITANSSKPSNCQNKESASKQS", "assay_type": "functional"}, "[4]": {"assay": "A549 cell cytotoxicity, dose response, cytotoxicity control, plate reader, cherry-pick, antagonist series (AID 743412)", "assay_type": "functional, cell-based"}, "[5]": {"assay": "general cell-killing toxicity readout – plate reader, dry powder samples, cytotoxicity control for PAX8 inhibitor project, dose response (AID 743021)", "assay_type": "functional, cell-based"}, "[6]": {"target": "Glucose-6-phosphate 1-dehydrogenase (Homo sapiens, UniProt P11413)", "sequence (P11413 whole entry)": "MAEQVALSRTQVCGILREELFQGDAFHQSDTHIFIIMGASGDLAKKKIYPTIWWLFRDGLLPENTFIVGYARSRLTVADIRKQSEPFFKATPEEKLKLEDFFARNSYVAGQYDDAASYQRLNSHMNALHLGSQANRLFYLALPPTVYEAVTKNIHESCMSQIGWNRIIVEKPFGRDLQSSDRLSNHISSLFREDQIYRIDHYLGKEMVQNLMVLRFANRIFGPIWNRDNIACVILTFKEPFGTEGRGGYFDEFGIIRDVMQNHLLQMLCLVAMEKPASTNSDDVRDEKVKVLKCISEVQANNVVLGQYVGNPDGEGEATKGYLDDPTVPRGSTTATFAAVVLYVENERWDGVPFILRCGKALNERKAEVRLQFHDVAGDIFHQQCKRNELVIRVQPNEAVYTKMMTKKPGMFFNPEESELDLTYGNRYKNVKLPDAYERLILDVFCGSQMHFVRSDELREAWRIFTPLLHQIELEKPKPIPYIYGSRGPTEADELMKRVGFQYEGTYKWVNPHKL", "assay": "inhibition of Homo sapiens G6PD, dose series – biochemical, fluorescence, selectivity assay for P. falciparum G6PD inhibitor project, dose response (AID 504792)", "assay_type": "functional"}, "[7]": {"assay": "viability loss in HEK293 cells – cell-based, plate reader, cherry-picked samples, cytotoxicity control, dose response (AID 743446)", "assay_type": "functional"}, "[8]": {"target": "Mitochondrial peptide methionine sulfoxide reductase (Bos taurus, UniProt P54149)", "sequence (P54149 whole entry)": "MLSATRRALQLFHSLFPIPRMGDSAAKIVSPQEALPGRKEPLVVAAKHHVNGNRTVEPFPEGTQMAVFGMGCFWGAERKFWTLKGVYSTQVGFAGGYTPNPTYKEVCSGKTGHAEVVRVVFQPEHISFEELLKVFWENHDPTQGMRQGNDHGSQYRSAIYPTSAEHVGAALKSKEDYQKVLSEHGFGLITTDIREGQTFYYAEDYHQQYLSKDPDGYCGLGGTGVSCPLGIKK", "assay_type": "functional"}, "Paired box protein Pax-8": {"target": "Paired box protein Pax-8 (Homo sapiens, UniProt Q06710)", "sequence (Q06710 whole entry)": "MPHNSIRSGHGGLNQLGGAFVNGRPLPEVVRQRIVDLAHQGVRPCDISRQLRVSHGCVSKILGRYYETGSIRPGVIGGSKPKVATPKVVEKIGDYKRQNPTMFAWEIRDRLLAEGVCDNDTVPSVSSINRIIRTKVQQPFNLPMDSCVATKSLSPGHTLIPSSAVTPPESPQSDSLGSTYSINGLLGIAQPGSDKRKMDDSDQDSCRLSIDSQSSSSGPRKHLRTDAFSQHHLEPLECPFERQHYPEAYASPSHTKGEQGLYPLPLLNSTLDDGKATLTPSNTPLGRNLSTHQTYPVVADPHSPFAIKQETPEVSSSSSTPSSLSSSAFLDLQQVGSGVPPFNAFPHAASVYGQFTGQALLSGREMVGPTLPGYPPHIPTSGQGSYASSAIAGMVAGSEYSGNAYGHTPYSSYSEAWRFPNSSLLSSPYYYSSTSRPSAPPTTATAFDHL", "assay": "PAX8 transcriptional activity inhibition in RMG-I – RMG-I cells, luciferase, cherry-pick, dose response (AID 687027);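 also: luciferase reporter driven by Pax8 target thyroperoxidase promoter measured by SteadyGlo luminescence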", "assay_type": "functional, cell-based"}, "[9]": {"assay": "toxicity toward HepG2 liver cells – cell-based, plate reader, cherry-pick, antagonist series, cytotoxicity control, dose response (AID 743416)", "assay_type": "functional"}, "[10]": {"assay": "blockade of melanocortin 4 receptor signaling – cell-based, plate reader, cherry pick, counter-screen for LGR2 antagonist project, dose response (AID 743444);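 also: transfected HEK 293 cells stimulated with alpha-MSH peptide; potency of inhibitors of the alpha-MSH evoked signal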", "assay_type": "functional"}, "[11]": {"assay": "blockers of bursicon-stimulated LGR2 cAMP reporter – cell-based, HEK293, CRE-luciferase reporter, cherry pick, set 2, dose response (AID 743343);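 also: transfected cells were stimulated with diluted bursicon conditioned medium after compound addition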", "assay_type": "functional"}, "Protein Wnt-3a": {"target": "Protein Wnt-3a (Mus musculus, UniProt P27467)", "sequence (P27467 whole entry)": "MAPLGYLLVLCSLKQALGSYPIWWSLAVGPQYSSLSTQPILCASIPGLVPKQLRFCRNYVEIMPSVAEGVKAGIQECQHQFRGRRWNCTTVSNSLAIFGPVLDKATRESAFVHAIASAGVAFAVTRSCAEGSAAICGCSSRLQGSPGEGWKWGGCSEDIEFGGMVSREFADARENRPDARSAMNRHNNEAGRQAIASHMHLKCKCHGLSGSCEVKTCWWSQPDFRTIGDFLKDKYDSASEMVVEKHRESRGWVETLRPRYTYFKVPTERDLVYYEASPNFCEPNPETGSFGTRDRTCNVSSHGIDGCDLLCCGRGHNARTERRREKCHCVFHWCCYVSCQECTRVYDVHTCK", "assay": "antagonism of Wnt3a pathway luciferase reporter – Wnt-LIGHT cells, luminescence, selectivity assay for Gli-SUFU antagonist project, dose response (AID 651570);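 also: Wnt-LIGHT reporter cells stimulated with conditioned medium from Wnt3a-producing cells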", "assay_type": "functional", "conditions": "read-out: IC50_Mean"}, "[12]": {"target": "T3, Small ubiquitin-related modifier 2 (Homo sapiens, UniProt P61956)", "T3 sequence (P61956 whole entry)": "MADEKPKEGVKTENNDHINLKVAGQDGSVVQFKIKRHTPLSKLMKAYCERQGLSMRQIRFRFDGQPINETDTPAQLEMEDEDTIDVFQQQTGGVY", "assay": "SUMO2 binding disruption by SUMO1 hits – biochemical, FRET, human SUMO2, uHTS hits, selectivity assay for SUMO1 interaction inhibitor project, dose response (AID 624384)", "assay_type": "functional", "conditions": "read-out: IC50_Mean"}, "[13]": {"target": "T4, Small ubiquitin-related modifier 1 (Homo sapiens, UniProt P63165)", "T4 sequence (P63165 whole entry)": "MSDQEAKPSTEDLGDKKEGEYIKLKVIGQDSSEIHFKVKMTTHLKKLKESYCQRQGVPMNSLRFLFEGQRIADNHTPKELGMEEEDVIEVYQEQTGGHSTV", "assay": "SUMO1 protein interaction blockers, potency – biochemical, fluorescence polarization, uHTS hits, dose response (AID 624382)", "assay_type": "functional", "conditions": "read-out: IC50_Mean"}, "[14]": {"target": "T4, Small ubiquitin-related modifier 1", "assay": "SUMO1 protein-protein binding blockers, potency – biochemical, FRET, dose response (AID 624383)", "assay_type": "functional", "conditions": "read-out: IC50_Mean"}, "[15]": {"target": "T3, Small ubiquitin-related modifier 2", "assay": "disruption of SUMO2 interaction with SIM peptide – biochemical, fluorescence polarization, uHTS hits, selectivity assay for SUMO1 interaction inhibitor project, dose response (AID 624385)", "assay_type": "functional", "conditions": "read-out: IC50_Mean"}, "[16]": {"assay": "Fluorescence-based cell-based high throughput dose response assay for inhibitors of the interaction of nucleotide-binding oligomerization domain containing 2 (NOD2) and the receptor-interacting serine-threonine kinase 2 (RIPK2).", "assay_type": "functional", "conditions": "Homo sapiens"}, "Beta Lactamase": {"target": "Beta Lactamase (Pseudomonas aeruginosa, UniProt Q932Y6)", "sequence (Q932Y6 whole entry)": "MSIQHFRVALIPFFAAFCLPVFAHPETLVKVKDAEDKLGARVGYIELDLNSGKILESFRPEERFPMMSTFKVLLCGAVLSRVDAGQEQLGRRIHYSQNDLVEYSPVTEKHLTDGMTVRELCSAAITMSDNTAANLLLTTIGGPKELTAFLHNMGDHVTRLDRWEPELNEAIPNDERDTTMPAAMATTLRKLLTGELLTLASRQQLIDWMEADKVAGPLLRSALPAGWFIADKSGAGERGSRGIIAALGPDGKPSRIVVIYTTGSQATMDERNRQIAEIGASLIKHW", "assay": "BLA reporter interference, concentration series – BLA reporter cells, FRET fluorescence, artefact control for NOD2-RIPK2 interaction inhibitor project, dose response (AID 651552)", "assay_type": "functional, cell-based"}, "[17]": {"target": "Melanin-concentrating hormone receptor 1 (Homo sapiens, UniProt Q99705)", "sequence (Q99705 whole entry)": "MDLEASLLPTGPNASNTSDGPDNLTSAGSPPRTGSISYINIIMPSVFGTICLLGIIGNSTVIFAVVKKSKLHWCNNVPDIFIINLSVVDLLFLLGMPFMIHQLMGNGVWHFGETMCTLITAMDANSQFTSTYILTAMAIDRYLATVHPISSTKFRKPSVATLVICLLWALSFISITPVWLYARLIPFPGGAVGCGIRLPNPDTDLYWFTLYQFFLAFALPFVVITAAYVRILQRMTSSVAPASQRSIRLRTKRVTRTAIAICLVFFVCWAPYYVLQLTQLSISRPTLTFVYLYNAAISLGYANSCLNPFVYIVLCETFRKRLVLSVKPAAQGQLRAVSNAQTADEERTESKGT", "assay": "Late-stage fluorescence-based counterscreen for antagonists of the G-protein coupled receptor 7 (GPR7): cell-based dose response assay to identify antagonists of the melanin-concentrating hormone receptor 1 (MCHR1) Set 6.", "assay_type": "functional"}, "[18]": {"target": "T5, Neuropeptides B/W receptor type 1 (Homo sapiens, UniProt P48145)", "T5 sequence (P48145 whole entry)": "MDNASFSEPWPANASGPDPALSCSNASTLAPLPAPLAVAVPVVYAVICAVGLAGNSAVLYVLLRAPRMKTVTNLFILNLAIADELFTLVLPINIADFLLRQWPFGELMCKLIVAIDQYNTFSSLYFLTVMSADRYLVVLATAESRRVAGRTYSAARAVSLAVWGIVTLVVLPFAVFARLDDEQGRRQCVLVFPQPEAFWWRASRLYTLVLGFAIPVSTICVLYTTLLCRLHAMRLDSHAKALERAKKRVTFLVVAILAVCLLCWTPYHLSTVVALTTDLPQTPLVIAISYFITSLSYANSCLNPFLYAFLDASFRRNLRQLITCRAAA", "assay": "human NPBW1 receptor blockade, IC50 – cell-based, fluorescence, dose response, set 6, late-stage follow-up (AID 588583)", "assay_type": "functional"}, "[19]": {"target": "T6, High affinity choline transporter 1 (Homo sapiens, UniProt Q9GZV3)", "T6 sequence (Q9GZV3 whole entry)": "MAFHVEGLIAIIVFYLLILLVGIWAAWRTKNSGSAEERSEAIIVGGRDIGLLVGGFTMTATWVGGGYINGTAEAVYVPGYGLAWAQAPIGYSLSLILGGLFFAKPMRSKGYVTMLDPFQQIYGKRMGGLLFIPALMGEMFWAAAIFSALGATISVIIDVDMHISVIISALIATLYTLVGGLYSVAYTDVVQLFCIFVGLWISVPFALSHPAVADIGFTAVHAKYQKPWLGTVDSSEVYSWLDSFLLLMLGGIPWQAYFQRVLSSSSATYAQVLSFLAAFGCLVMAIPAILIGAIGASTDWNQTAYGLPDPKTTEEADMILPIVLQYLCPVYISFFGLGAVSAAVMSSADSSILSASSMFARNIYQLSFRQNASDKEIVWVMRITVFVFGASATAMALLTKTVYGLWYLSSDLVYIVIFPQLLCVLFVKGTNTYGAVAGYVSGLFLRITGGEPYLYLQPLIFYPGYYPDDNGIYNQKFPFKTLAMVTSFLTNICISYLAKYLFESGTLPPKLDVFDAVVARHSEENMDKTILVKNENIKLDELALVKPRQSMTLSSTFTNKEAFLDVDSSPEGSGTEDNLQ", "assay": "human choline transporter blockers, potency – cell-based, 5-point CRC, membrane potential dye, dose response (AID 504840)", "assay_type": "functional"}, "[20]": {"target": "T6, High affinity choline transporter 1", "assay": "human choline transporter blockers, potency – cell-based, 10-point CRC, membrane potential dye, dose response (AID 588401);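 also: membrane potential dye fluorescence of choline-evoked depolarization via CHT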", "assay_type": "functional"}}, "note": "Activity calls are given as the source filed them.", "data": [{"smiles": "Cn1c(NNC(=O)c2c(F)cccc2F)cc(=O)n(C)c1=O", "values": [{"measurement": "IC50", "setting": "[1]", "value": "12.5 µM (active)"}, {"measurement": "IC50", "setting": "[2]", "value": "28 µM (active)"}]}, {"smiles": "O=S(=O)(Nc1ccc2c(c1)C(=NO)c1ccccc1-2)c1cccc(Cl)c1", "values": [{"measurement": "Ki", "setting": "Aurora kinase B", "value": "0.00398 µM (active)"}, {"measurement": "Ki", "setting": "[3]", "value": "3.16 µM (active)"}, {"measurement": "Ki", "setting": "Aurora kinase A", "value": "> 2 µM (inactive)"}]}, {"smiles": "Cc1ccc(Cl)cc1N=C1C=C(NS(=O)(=O)c2cccs2)c2ccccc2C1=O", "values": [{"measurement": "AC50", "setting": "[4]", "value": "10.1 µM (active)"}, {"measurement": "AC50", "setting": "[5]", "value": "17.2 µM (active)"}, {"measurement": "IC50", "setting": "[6]", "value": "> 80 µM (inactive)"}, {"measurement": "AC50", "setting": "[7]", "value": "7.88 µM (active)"}, {"measurement": "IC50", "setting": "[8]", "value": "155 µM (inactive)"}, {"measurement": "AC50", "setting": "Paired box protein Pax-8", "value": "4.82 µM (active)"}, {"measurement": "AC50", "setting": "[9]", "value": "8 µM (active)"}, {"measurement": "AC50", "setting": "[10]", "value": "5.09 µM (active)"}, {"measurement": "AC50", "setting": "[11]", "value": "4.71 µM (active)"}]}, {"smiles": "CCCN1CCC(=O)N([C@H](CSc2ccc(OC)cc2)Cc2ccccc2)CC1", "values": [{"measurement": "IC50", "setting": "Protein Wnt-3a", "value": "11 µM (active)"}]}, {"smiles": "COc1ccc(-c2csc(/C(C#N)=C\\c3ccc(O)c([N+](=O)[O-])c3)n2)cc1OC", "values": [{"measurement": "IC50", "setting": "[12]", "value": "> 66 µM (inactive)"}, {"measurement": "IC50", "setting": "[13]", "value": "51.3 µM (inactive)"}, {"measurement": "IC50", "setting": "[14]", "value": "52.1 µM (inactive)"}, {"measurement": "IC50", "setting": "[15]", "value": "35.7 µM (inactive)"}]}, {"smiles": "CC(=O)O/N=C1C=C/C(=C(\\C#N)c2ccccc2)C=C/1", "values": [{"measurement": "IC50", "setting": "[16]", "value": "5.83 µM (active)"}, {"measurement": "IC50", "setting": "Beta Lactamase", "value": "49.8 µM (inactive)"}]}, {"smiles": "N#CC(c1ccccc1[N+](=O)[O-])c1c(Cl)cnn(Cc2cccc3ccccc23)c1=O", "note": "(stereo not given)", "values": [{"measurement": "IC50", "setting": "[17]", "value": "1.26 µM (active)"}, {"measurement": "IC50", "setting": "[18]", "value": "1.26 µM (active)"}]}, {"smiles": "O=C(NCCCn1ccnc1)c1cnn2c1NC(c1ccccc1)CC2C(F)(F)F", "note": "(stereo not given)", "values": [{"measurement": "IC50", "setting": "[19]", "value": "8.15 µM (active)"}, {"measurement": "IC50", "setting": "[20]", "value": "4.47 µM (active)"}]}]}
